Results as given in patent publication US8080570B2, “α2B and α2C agonists” (Allergan, Inc., priority 2008, dated 2011).

How the values were obtained:
Format in all cases: cell-based
α2C = biological target: T1, α2C (Homo sapiens, UniProt P18825); experiment: FLIPR intracellular calcium assay, α2C; details: for EC50: read-out: α2C potency (EC50); for α2C relative efficacy: value in parentheses, relative to a standard full agonist
T1 sequence (P18825 1-462): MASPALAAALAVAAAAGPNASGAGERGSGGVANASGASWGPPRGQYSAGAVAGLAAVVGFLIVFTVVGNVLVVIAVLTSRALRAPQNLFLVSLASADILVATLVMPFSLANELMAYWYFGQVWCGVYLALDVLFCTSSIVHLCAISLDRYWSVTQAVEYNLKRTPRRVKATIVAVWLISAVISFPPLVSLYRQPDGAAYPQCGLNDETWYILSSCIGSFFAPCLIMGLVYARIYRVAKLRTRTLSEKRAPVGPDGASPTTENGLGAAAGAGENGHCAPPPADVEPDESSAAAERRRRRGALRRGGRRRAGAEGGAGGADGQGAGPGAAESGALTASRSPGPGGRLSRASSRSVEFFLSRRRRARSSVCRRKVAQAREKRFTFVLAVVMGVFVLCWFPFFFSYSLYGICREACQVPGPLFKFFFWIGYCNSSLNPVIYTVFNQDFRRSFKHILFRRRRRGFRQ

α2A = biological target: T2, α2A (Homo sapiens, UniProt P08913); experiment: FLIPR intracellular calcium assay, α2A; details: for EC50: FLIPR, fluo-3 calcium, NA = not active, read-out: α2A potency (EC50); for α2A relative efficacy: value in parentheses, relative to a standard full agonist
T2 sequence (P08913 1-465): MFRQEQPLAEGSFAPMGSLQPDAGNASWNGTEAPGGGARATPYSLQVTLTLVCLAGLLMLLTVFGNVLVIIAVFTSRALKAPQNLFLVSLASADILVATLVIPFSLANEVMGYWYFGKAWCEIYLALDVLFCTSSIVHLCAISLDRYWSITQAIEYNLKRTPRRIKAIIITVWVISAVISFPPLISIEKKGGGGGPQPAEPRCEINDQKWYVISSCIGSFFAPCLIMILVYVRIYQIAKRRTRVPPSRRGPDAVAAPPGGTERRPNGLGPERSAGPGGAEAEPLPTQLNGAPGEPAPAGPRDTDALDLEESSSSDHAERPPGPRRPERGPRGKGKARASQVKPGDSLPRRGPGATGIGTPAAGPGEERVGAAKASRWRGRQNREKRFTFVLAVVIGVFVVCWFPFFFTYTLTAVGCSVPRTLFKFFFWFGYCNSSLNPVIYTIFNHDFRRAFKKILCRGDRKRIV

α1B = biological target: T3, α1B (UniProt P35368); experiment: FLIPR intracellular calcium assay, α1B; details: for EC50: FLIPR, fluo-3 calcium, NA = not active, read-out: α1B potency (EC50); for α1B relative efficacy: value in parentheses, relative to a standard full agonist
T3 sequence (P35368 1-520): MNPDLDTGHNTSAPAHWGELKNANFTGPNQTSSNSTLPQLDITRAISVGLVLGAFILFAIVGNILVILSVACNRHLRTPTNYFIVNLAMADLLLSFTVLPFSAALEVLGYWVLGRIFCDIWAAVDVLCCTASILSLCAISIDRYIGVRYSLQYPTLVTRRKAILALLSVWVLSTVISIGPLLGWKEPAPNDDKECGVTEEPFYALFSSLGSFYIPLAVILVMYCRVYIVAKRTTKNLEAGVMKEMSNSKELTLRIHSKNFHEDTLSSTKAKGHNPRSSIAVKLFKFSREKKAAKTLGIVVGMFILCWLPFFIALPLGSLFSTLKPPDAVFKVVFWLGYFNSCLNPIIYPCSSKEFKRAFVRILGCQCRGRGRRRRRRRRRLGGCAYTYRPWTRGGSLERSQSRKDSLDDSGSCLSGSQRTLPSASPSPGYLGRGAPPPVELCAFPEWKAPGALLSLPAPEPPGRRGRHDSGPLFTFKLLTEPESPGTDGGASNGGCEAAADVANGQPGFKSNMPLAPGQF
Experimental: (§1) Selected examples were tested via the intracellular calcium assay known as Fluorometric Imaging Plate Reader (FLIPR) which involves the detection of calcium pulses by fluo-3 for analyzing function proximal to α1 receptor activation. […] The compound's activity is expressed as its relative efficacy compared to a standard full agonist.

α2B = biological target: T4, α2B (Homo sapiens, UniProt P18089); experiment: FLIPR intracellular calcium assay, α2B; details: for EC50: FLIPR, fluo-3 calcium, NA = not active, read-out: α2B potency (EC50); for α2B relative efficacy: value in parentheses, relative to a standard full agonist
T4 sequence (P18089 1-450): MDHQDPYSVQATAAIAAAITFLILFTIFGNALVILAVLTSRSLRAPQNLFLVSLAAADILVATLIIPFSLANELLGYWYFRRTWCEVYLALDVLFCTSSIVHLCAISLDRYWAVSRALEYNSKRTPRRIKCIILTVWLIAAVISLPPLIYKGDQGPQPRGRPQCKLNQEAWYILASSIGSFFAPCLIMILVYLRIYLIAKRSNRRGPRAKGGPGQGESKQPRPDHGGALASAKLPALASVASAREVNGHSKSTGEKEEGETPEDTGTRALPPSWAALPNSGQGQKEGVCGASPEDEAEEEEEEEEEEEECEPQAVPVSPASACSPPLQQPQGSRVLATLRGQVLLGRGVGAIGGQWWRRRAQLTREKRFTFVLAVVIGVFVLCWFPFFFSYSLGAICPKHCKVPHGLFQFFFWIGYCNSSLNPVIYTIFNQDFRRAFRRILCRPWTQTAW

α1A = biological target: T5, α1A (UniProt P35348); experiment: FLIPR intracellular calcium assay, α1A; details: for EC50: FLIPR, fluo-3 calcium, NA = not active, read-out: α1A potency (EC50); for α1A relative efficacy: value in parentheses, relative to a standard full agonist
T5 sequence (P35348 1-466): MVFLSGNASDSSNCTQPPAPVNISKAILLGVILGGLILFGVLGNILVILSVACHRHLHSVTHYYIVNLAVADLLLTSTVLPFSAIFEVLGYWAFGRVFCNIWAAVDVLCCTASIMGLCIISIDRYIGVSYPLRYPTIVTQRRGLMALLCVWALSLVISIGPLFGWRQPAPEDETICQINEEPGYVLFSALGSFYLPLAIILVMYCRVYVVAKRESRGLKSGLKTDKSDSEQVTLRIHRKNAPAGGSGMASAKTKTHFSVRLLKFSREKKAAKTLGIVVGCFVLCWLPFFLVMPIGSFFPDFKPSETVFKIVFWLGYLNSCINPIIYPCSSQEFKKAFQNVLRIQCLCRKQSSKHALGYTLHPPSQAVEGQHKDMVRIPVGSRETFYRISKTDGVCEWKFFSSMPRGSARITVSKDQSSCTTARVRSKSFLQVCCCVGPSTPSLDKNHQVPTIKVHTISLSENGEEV
Experimental: as §1

[1] = FLIPR, fluo-3 calcium, NA = not active

SMILES	EC50 (α2C; [1]) [nM]	α2C relative efficacy (α2C)	EC50 (α2A) [nM]	α2A relative efficacy (α2A)	EC50 (α1B) [µM]	EC50 (α2B) [nM]	α2B relative efficacy (α2B)	EC50 (α1A) [nM]	α1A relative efficacy (α1A)	α2C potency (EC50) (α2C; [1])	α1B relative efficacy (α1B)
C#CC(C)NC1=NCCO1 (stereo not drawn)	34.6	0.89	4050	0.20	> 10	413	0.77	> 10000			
C#CC(CC)NC1=NCCO1 (stereo not drawn)	0.004	0.87	54.7	0.74		91.5	0.82	6540	0.78		
C#CC(CCC)NC1=NCCO1 (stereo not drawn)	65	0.99	664	0.44	> 10	386	0.68	3030	0.72		
C#CC(CC(C)C)NC1=NCCO1 (stereo not drawn)	18.3	0.98	> 10000		> 10	331	0.48	7370	0.59		
C#CC(NC1=NCCO1)c1ccccc1 (stereo not drawn)		Potent (0.82)		0.04 (0.82)			1.12 (0.61)		0.58 (0.92)		
C#C[C@H](NC1=NCCO1)C(C)C		1.02	16.9	0.85	5.94	64	0.88	1200	0.93	Potent	0.28
C#CC(NC1=NCCO1)C1CC1 (stereo not drawn)	127	0.89	298	0.41	> 10	354	0.71				
C#CC(NC1=NCCO1)c1ccccc1Br (stereo not drawn)	295	0.81	> 10000		> 10	361	0.36	1650	0.34		
N#CC(NC1=NCCO1)c1ccccc1 (stereo not drawn)	158	0.76	588	0.42		215	0.56	1140	0.99		
C#CC(NC1=NCCO1)c1cccc(F)c1F (stereo not drawn)	6.01	0.88	30	0.79	3.51	25.9	0.50	40.8	0.96		0.54
C#CC(NC1=NCCO1)c1cccc(Cl)c1 (stereo not drawn)	382	0.78	80.5	0.88	5.36	218	0.56	410	0.81		0.24
